PubChem BioAssay (NCI)
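Cultured in 96-well plates, cells were exposed to test compound for 48 hours across five concentrations. GI50 is the concentration that inhibits growth by half. TGI marks complete inhibition of growth.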

Columns and labels:
Assay in all cases: NCI-60 cell line screen, 48 h
[1] = test system: HOP-62 NSCLC
[2] = test system: MALME-3M melanoma
[3] = test system: RPMI-8226 leukemia
[4] = test system: SK-MEL-28 melanoma
[5] = test system: SN12C renal
[6] = test system: SW-620 colon
[7] = test system: TK-10 renal
[8] = test system: UO-31 renal
[9] = test system: M19-MEL melanoma
[10] = test system: HOP-18 NSCLC

`C#C[C@@]1(O)[C@@H](CO)O[C@@H](n2cc(I)c3c(N)ncnc32)[C@@H]1O` gave a GI50 [1] of 0.747 µM, a TGI [1] of 8.69 µM and a GI50 [2] of 0.826 µM. It also gave a TGI [2] of 3.39 µM, a GI50 [3] of 0.343 µM and a TGI [3] of 5.51 µM. The GI50 [4] was 1.96 µM, the TGI [4] was 11.4 µM and the GI50 [5] was 0.0976 µM. The TGI [5] was over 100 µM, the GI50 [6] was 0.0581 µM and the TGI [6] was over 100 µM. It also gave a GI50 [7] of 0.551 µM, a TGI [7] of 5.51 µM and a GI50 [8] of 0.0901 µM. The TGI [8] was 3.19 µM.
`Cc1ccc([N+](=O)[O-])c2c(NCCNC(=O)c3cc(C(=O)NCCNc4ccnc5c(C)ccc([N+](=O)[O-])c45)n(C)n3)ccnc12` showed a TGI [1] of over 71.2 µM, a TGI [2] of over 73.2 µM and a TGI [3] of 78.3 µM. It also gave a TGI [4] of over 78 µM, a TGI [5] of over 70.9 µM and a TGI [6] of 53.4 µM. It also gave a TGI [7] of over 100 µM and a TGI [8] of over 100 µM.
For `CCCCCCCC1(c2ccc(N)cc2)CCC(=O)NC1=O` (centres undefined), the TGI [1] was over 100 µM, the TGI [9] was over 100 µM and the TGI [2] was over 100 µM. It also gave a TGI [3] of 40.8 µM, a TGI [4] of over 100 µM and a TGI [5] of over 100 µM. The TGI [6] was over 100 µM, the TGI [7] was over 100 µM and the TGI [8] was 74.8 µM.
`O=[N+]([O-])c1ccc(Cl)c(CNc2ncnc3c2ncn3C2CCCCO2)c1` (centres undefined) showed a TGI [1] of over 100 µM, a TGI [2] of over 100 µM and a TGI [3] of over 100 µM. For the same compound, the TGI [4] was over 100 µM, the TGI [5] was over 100 µM and the TGI [6] was over 100 µM. The TGI [7] was over 100 µM and the TGI [8] was over 100 µM.
Compound `CCN(CC)CC1CCCCN1CC(=O)N1CC(C)C(=O)Nc2ccccc21` (centres undefined) has a TGI [10] of over 100 µM, a TGI [1] of over 100 µM and a TGI [9] of over 100 µM. For the same compound, the TGI [2] was over 100 µM, the TGI [3] was over 100 µM and the TGI [4] was over 100 µM. It also gave a TGI [5] of over 100 µM, a TGI [6] of over 100 µM and a TGI [8] of over 100 µM.
`C#Cc1cccc(Nc2nc(Cl)nc3cc(NC(=O)CCl)ccc23)c1` gave a GI50 [1] of 1.99 µM, a TGI [1] of 5.32 µM and a GI50 [2] of 1 µM. It also gave a TGI [2] of 2.25 µM, a GI50 [3] of 0.895 µM and a TGI [3] of 4.61 µM. It also gave a GI50 [4] of 2.85 µM, a TGI [4] of 6.12 µM and a GI50 [5] of 0.637 µM. For the same compound, the TGI [5] was 1.8 µM, the GI50 [6] was 0.51 µM and the TGI [6] was 1.21 µM. The GI50 [7] was 1.74 µM, the TGI [7] was 5.29 µM and the GI50 [8] was 0.823 µM. It also gave a TGI [8] of 3.15 µM.
Work on `Nc1nc2c(C(=O)NCc3cccs3)nnn2c2cccc(Cl)c12` yielded a TGI [1] of over 100 µM, a TGI [2] of over 100 µM and a TGI [3] of over 100 µM. It also gave a TGI [4] of over 100 µM, a TGI [5] of over 100 µM and a TGI [6] of over 100 µM. The TGI [7] was over 100 µM and the TGI [8] was over 100 µM.
For `CC1=C(SC#N)S(=O)(=O)N(c2ccccc2)C(C)=C1SC#N`, the TGI [9] was over 100 µM, the TGI [2] was over 100 µM and the TGI [3] was over 100 µM. The TGI [4] was over 100 µM, the TGI [5] was over 100 µM and the TGI [6] was over 100 µM. It also gave a TGI [7] of over 100 µM and a TGI [8] of over 100 µM.
`CC/C(Cc1ccccc1)=C(\c1ccc(OCCN2CCCC2)cc1)c1ccc(OC(=O)NCc2ccccc2)cc1` gave a GI50 [1] of 2.07 µM, a TGI [1] of 3.75 µM and a GI50 [2] of 1.68 µM. It also gave a TGI [2] of 3.19 µM, a GI50 [3] of 2.25 µM and a TGI [3] of 4.95 µM. It also gave a GI50 [4] of 1.72 µM, a TGI [4] of 3.18 µM and a GI50 [5] of 1.81 µM. It also gave a TGI [5] of 3.33 µM, a GI50 [6] of 1.93 µM and a TGI [6] of 3.77 µM. It also gave a GI50 [7] of 1.76 µM, a TGI [7] of 3.5 µM and a GI50 [8] of 1.61 µM. For the same compound, the TGI [8] was 3 µM.
In the case of `COc1ccc(-c2ccc(/C=N/n3c(COc4ccccc4Cl)nn(CN4CCOCC4)c3=S)o2)c([N+](=O)[O-])c1`, the GI50 [1] is reported as 30 µM, the TGI [1] is reported as 85.5 µM and the GI50 [2] is reported as 18 µM. The TGI [2] was 44.3 µM, the GI50 [3] was 15.2 µM and the TGI [3] was 42.1 µM. For the same compound, the GI50 [4] was 46 µM, the TGI [4] was over 100 µM and the GI50 [5] was 32 µM. The TGI [5] was 96.7 µM, the GI50 [6] was 27.4 µM and the TGI [6] was 87.1 µM. The GI50 [7] was 14.9 µM, the TGI [7] was 47.9 µM and the GI50 [8] was 37.1 µM. For the same compound, the TGI [8] was over 100 µM.
